Measured values from patent US10512654B2, “Pharmaceutical composition including dutasteride and capsule formulation comprising the same” (YUYU PHARMA, INC., priority 2015, dated 2019).
In brackets after ≈: the same amount, converted by molar mass.

Key:
Format in all cases: physicochemical
[1] = Stability of dutasteride in mixture of oil and surfactant (Test Example 3); details: storage condition not given
Protocol: A stability test on the pharmaceutical composition of the comparative example dissolving 0.5 mg of dutasteride in a mixture of 95 mg of propylene glycol monocaprylate and 5 mg of polyoxyl 35 castor oil and stored in a transparent vial, and the pharmaceutical composition of the example including dutasteride, propylene glycol monolaurate and polyoxyl 35 castor oil was carried out by identifying the generation of degradation products under an accelerated condition (40° C., 75% RH) and a stress condition (50° C. 95% RH). As shown in the following Table 5, it was seen that the mixture of propylene glycol monolaurate and a surfactant secured the stability of dutasteride unlike mixtures of surfactant with other oils such as propylene glycol monocaprylate.

[2] = Solubility of dutasteride in oil (Test Example 1); details: for solubility at 24 h: oil or lipid, thermodynamic from solid
Protocol: In order to measure the solubility of dutasteride in oil, the solubility of dutasteride in soybean oil, castor oil, propylene glycol dicaprylate, propylene glycol dicaprate and propylene glycol monolaurate was measured. In a 10 mL vial, a magnetic bar was placed. After 3 mL of the oil was added thereto, approximately 100 mg of dutasteride was added thereto while stirring under a room temperature (25° C.) condition, and the resultant mixture was stirred with 500 rpm or higher. After stirring for 24 hours, 1 mL of the resultant mixture was taken and separated using a centrifuge, and only the supernatant was taken to quantify the amount of dutasteride dissolved in the oil using liquid chromatography.

[3] = Test I on stability of dutasteride depending on oil type (Test Example 2)
Protocol: As samples used in the comparison test, a sample dissolving 1.0 mg of dutasteride in 10.0 mg of propylene glycol monolaurate and stored in a transparent vial, and a sample dissolving 1.0 mg of dutasteride in 10.0 mg of caprylic/capric acid mono-di-glyceride and stored in a transparent vial were used.

[4] = in Propylene Glycol Monocaprylate + Polyoxyl 35 Castor Oil
[5] = in Propylene Glycol Monolaurate + Polyoxyl 35 Castor Oil

SMILES: C[C@]12C=CC(=O)N[C@@H]1CC[C@@H]1[C@@H]2CC[C@]2(C)[C@@H](C(=O)Nc3cc(C(F)(F)F)ccc3C(F)(F)F)CC[C@@H]12 [Dutasteride, 17β-N-(2,5-bis(trifluoromethyl))phenylcarbamoyl-4-aza-5α-androst-1-en-3-one]
- Amount of Degradation Products (%) After 3 Weeks [1, 4]: 6.2%
- Amount of Degradation Products (%) After 4 Weeks [1, 4]: 12.1%
- Amount of Degradation Products (%) After 3 Weeks [1, 5]: None
- Amount of Degradation Products (%) After 4 Weeks [1, 5]: None
- Solubility of Dutasteride ([2]; in Propylene Glycol Dicaprylate, room temperature (25° C.), stirring for 24 hours): 1130 µg/mL
- solubility at 24 h ([2]; in Propylene Glycol Dicaprate, room temperature (25° C.), stirring for 24 hours): 770 µg/mL (≈ 1.46 mM)
- solubility at 24 h ([2]; in Propylene Glycol Monolaurate, room temperature (25° C.), stirring for 24 hours): 10400 µg/mL (≈ 19.7 mM)
- Solubility in propylene glycol monolaurate compared to other tested oils ([2]; propylene glycol monolaurate vs other tested (general) oils): ≥ 10 times
- Amount of Degradation Products (%) After 4 Weeks ([3]; in Caprylic/Capric Acid Mono-Di-Glyceride, Accelerated Condition (40° C., 75% RH)): 0.94%
- Amount of Degradation Products (%) After 4 Weeks ([3]; in Caprylic/Capric Acid Mono-Di-Glyceride, Stress Condition (50° C., 95% RH)): 1.75%
- Amount of Degradation Products (%) After 4 Weeks ([3]; in Propylene Glycol Monolaurate, Accelerated Condition (40° C., 75% RH)): None
- Amount of Degradation Products (%) After 4 Weeks ([3]; in Propylene Glycol Monolaurate, Accelerated Condition (40° C., 75% RH), listed as dutasteride): not generated
- Amount of Degradation Products (%) After 4 Weeks ([3]; in Propylene Glycol Monolaurate, Stress Condition (50° C., 95% RH)): 0.32%
- Stability of dutasteride in propylene glycol monolaurate compared to caprylic/capric acid mono-di-glyceride ([3]; week 4, accelerated (40° C., 75% RH) and stress condition (50° C., 95% RH), in words): more superior
